Source: ChEMBL document CHEMBL1828536, “The impact of fatty acids on the antibacterial properties of N-thiolated β-lactams” (2011)
Values after ≈ are worked out from the molar mass of the structure shown.

Legend:
Format in all cases: functional
Staphylococcus aureus [1] = test: Antimicrobial activity against methicillin-resistant Staphylococcus aureus using tryptone soy broth
Staphylococcus aureus [2] = test: Antimicrobial activity against methicillin-resistant Staphylococcus aureus using tryptone soy broth in presence of oleic acid
Staphylococcus aureus [3] = test: Antimicrobial activity against methicillin-resistant Staphylococcus aureus using tryptone soy broth in presence of tween-80
Staphylococcus aureus [4] = test: Antimicrobial activity against methicillin-resistant Staphylococcus aureus using tryptone soy broth in presence of bovine serum albumin

Compound | MIC (Staphylococcus aureus [1]) | MIC (Staphylococcus aureus [2]) | MIC (Staphylococcus aureus [3]) | MIC (Staphylococcus aureus [4])
CCC(C)SN1C(=O)[C@H](OC)[C@@H]1c1ccccc1Cl (some centres not stated) | 1000 µg/mL (≈ 3340 µM) | 2000 µg/mL | 3000 µg/mL | 
Oc1cc(Cl)ccc1Oc1ccc(Cl)cc1Cl [TRICLOSAN] | 20 µg/mL (≈ 69.1 µM) | 2000 µg/mL | > 10000 µg/mL | 20 µg/mL
